Source: PubChem BioAssay AID192 (DTP/NCI, 2004)
Where “and” joins values, the source holds several entries; their conditions need not be identical. Identical values can stand only once. Inconclusive results and toxic doses are left out. Square brackets hold non-standard residues; d marks the D form. Peptide text beside a SMILES is read from it. * marks the point of attachment. ξ: configuration not given here. Cbz = O=C(OCc1ccccc1)*; ξV = CC(C)C(N)C(=O)O; Sar = CNCC(=O)O

Tested on: BDF1 mice, B16 melanoma ip, median survival T/C
Assay: NCI In Vivo Anticancer Drug Screen. Data for tumor model B16 Melanoma (intraperitoneal) in B6D2F1 (BDF1) mice
Details: endpoint: median survival time, higher = longer survival
Method: The antitumor activity of compounds was measured in mice bearing transplantable tumors. Survival or tumor size were measured and the results are expressed as the measurement made in the treated group (T) divided by the measurement made in the vehicle treated control group (C). The tumor model used in this assay is B16 Melanoma (intraperitoneal) in B6D2F1 (BDF1) mice

[1] = dose: 0.78 mg/kg/injection, schedule: Q01DX009 (ip), vehicle: saline with Tween-80
[2] = dose: 3.12 mg/kg/injection, schedule: Q01DX009 (ip), vehicle: saline with Tween-80
[3] = dose: 12.5 mg/kg/injection, schedule: Q01DX009 (ip), vehicle: saline with Tween-80
[4] = dose: 100.0 mg/kg/injection, schedule: Q04DX003 (ip), vehicle: Klucel (hydroxypropylcellulose) (HPC)
[5] = dose: 200.0 mg/kg/injection, schedule: Q04DX003 (ip), vehicle: Klucel (hydroxypropylcellulose) (HPC)
[6] = dose: 400.0 mg/kg/injection, schedule: Q04DX003 (ip), vehicle: Klucel (hydroxypropylcellulose) (HPC)
[7] = dose: 50.0 mg/kg/injection, schedule: Q01DX009 (ip), vehicle: saline with Tween-80
[8] = dose: 100.0 mg/kg/injection, schedule: Q01DX009 (ip), vehicle: saline with Tween-80
[9] = dose: 200.0 mg/kg/injection, schedule: Q01DX009 (ip), vehicle: saline with Tween-80
[10] = dose: 25.0 mg/kg/injection, schedule: Q01DX009 (ip), vehicle: saline with Tween-80
[11] = dose: 0.25 mg/kg/injection, schedule: Q01DX009 (ip), vehicle: saline
[12] = dose: 0.5 mg/kg/injection, schedule: Q01DX009 (ip), vehicle: saline
[13] = dose: 1.0 mg/kg/injection, schedule: Q01DX009 (ip), vehicle: saline
[14] = dose: 4.0 mg/kg/injection, schedule: Q01DX009 (ip), vehicle: saline
[15] = dose: 6.25 mg/kg/injection, schedule: Q01DX009 (ip), vehicle: saline
[16] = dose: 8.0 mg/kg/injection, schedule: Q01DX009 (ip), vehicle: saline
[17] = dose: 12.5 mg/kg/injection, schedule: Q01DX009 (ip), vehicle: saline
[18] = dose: 25.0 mg/kg/injection, schedule: Q01DX009 (ip), vehicle: saline
[19] = dose: 100.0 mg/kg/injection, schedule: Q01DX009 (ip), vehicle: Klucel (hydroxypropylcellulose) (HPC)
[20] = dose: 200.0 mg/kg/injection, schedule: Q01DX009 (ip), vehicle: Klucel (hydroxypropylcellulose) (HPC)
[21] = dose: 50.0 mg/kg/injection, schedule: Q01DX009 (ip), vehicle: Klucel (hydroxypropylcellulose) (HPC)
[22] = dose: 50.0 mg/kg/injection, schedule: Q01DX009 (ip), vehicle: saline
[23] = dose: 25.0 mg/kg/injection, schedule: Q01DX009 (ip), vehicle: Klucel (hydroxypropylcellulose) (HPC)

Compound: CC[CH2][Pb]([CH2]CC)([CH2]CC)[O]C(=O)C(F)(F)F
- T/C (dose: 0.39 mg/kg/injection, schedule: Q01DX009 (ip), vehicle: saline with Tween-80): 93 % of control
- T/C [1]: 111 % of control
- T/C (dose: 1.5 mg/kg/injection, schedule: Q01DX009 (ip), vehicle: saline with Tween-80): 104 % of control
- T/C (dose: 3.0 mg/kg/injection, schedule: Q01DX009 (ip), vehicle: saline with Tween-80): 98 % of control
- T/C [2]: 86 % of control

Compound: Cc1cc(NCCCCCCCNc2cc(C)nc3cc(N)ccc23)c2ccc(N)cc2n1
- T/C [1]: 99 % of control
- T/C (dose: 1.56 mg/kg/injection, schedule: Q01DX009 (ip), vehicle: saline with Tween-80): 100 % of control
- T/C [2]: 113 % of control
- T/C (dose: 6.25 mg/kg/injection, schedule: Q01DX009 (ip), vehicle: saline with Tween-80): 103 % of control
- T/C [3]: 100 % of control

Compound: Cc1ccccc1NC(=O)Nc1ccccc1F
- T/C [4]: 93 % of control
- T/C [5]: 93 % of control
- T/C [6]: 100 % of control

Compound: OC1CC2CC1C1C=CCC21 (stereo unspecified)
- T/C [7]: 95 % of control
- T/C [8]: 95 % of control
- T/C [9]: 90 % of control

Compound: CCC1(C(C)Br)OC2=C(CC(C#N)(C#N)C(C#N)(C#N)C2)O1 (stereo unspecified)
- T/C (dose: 75.0 mg/kg/injection, schedule: Q04DX003 (ip), vehicle: Klucel (hydroxypropylcellulose) (HPC)): 87 % of control

Compound: CC(C)CCC1(CCBr)C(=O)NC(=Nc2ccccc2)NC1=O (stereo unspecified)
- T/C [10]: 86 % of control
- T/C [7]: 106 % of control
- T/C [8]: 96 % of control
- T/C [9]: 96 % of control

Compound: CC(=O)Oc1ccc(Nc2c3ccccc3nc3ccccc23)cc1
- T/C (dose: 1.87 mg/kg/injection, schedule: Q01DX009 (ip), vehicle: saline with Tween-80): 110 % of control
- T/C (dose: 3.75 mg/kg/injection, schedule: Q01DX009 (ip), vehicle: saline with Tween-80): 114 % of control
- T/C (dose: 7.5 mg/kg/injection, schedule: Q01DX009 (ip), vehicle: saline with Tween-80): 121 % of control
- T/C (dose: 29.3 mg/kg/injection, schedule: Q01DX009 (ip), vehicle: saline with Tween-80): 197 % of control
- T/C (dose: 30.0 mg/kg/injection, schedule: Q01DX009 (ip), vehicle: saline with Tween-80): 156 % of control and 158 % of control
- T/C (dose: 40.0 mg/kg/injection, schedule: Q01DX009 (ip), vehicle: saline with Tween-80): 150 % of control

Compound: COC(=O)C1C2CC3c4[nH]c5cc(OC)ccc5c4CCN3CC2CC(OC)C1OC (stereo unspecified)
- T/C [11]: 102 % of control
- T/C [12]: 94 % of control
- T/C [13]: 105 % of control
- T/C (dose: 1.56 mg/kg/injection, schedule: Q01DX009 (ip), vehicle: saline): 100 % of control
- T/C (dose: 3.12 mg/kg/injection, schedule: Q01DX009 (ip), vehicle: saline): 98 % of control
- T/C [14]: 94 % of control and 100 % of control
- T/C [15]: 103 % of control
- T/C [16]: 104 % of control
- T/C [17]: 106 % of control
- T/C (dose: 16.0 mg/kg/injection, schedule: Q01DX009 (ip), vehicle: saline): 99 % of control
- T/C [18]: 101 % of control
- T/C (dose: 32.0 mg/kg/injection, schedule: Q01DX009 (ip), vehicle: saline): 94 % of control

Compound: COc1ccc(NC(=O)Nc2cccc(Cl)c2C)cc1
- T/C [10]: 100 % of control
- T/C [7]: 102 % of control

Compound: CCCCCCC(=O)CCCC(C)CCCC(C)C (stereo unspecified)
- T/C [19]: 91 % of control
- T/C [4]: 105 % of control
- T/C [20]: 88 % of control
- T/C [5]: 94 % of control
- T/C [6]: 88 % of control

Compound: COc1ccc(NC(=O)Oc2ccccc2-c2ccccc2)cc1
- T/C (dose: 8.0 mg/kg/injection, schedule: Q01DX009 (ip), vehicle: saline with Tween-80): 100 % of control
- T/C (dose: 12.0 mg/kg/injection, schedule: Q01DX009 (ip), vehicle: saline with Tween-80): 95 % of control
- T/C [3]: 223 % of control
- T/C (dose: 18.0 mg/kg/injection, schedule: Q01DX009 (ip), vehicle: saline with Tween-80): 95 % of control
- T/C [10]: 199 % of control
- T/C [7]: 213 % of control

Compound: CN(C(=N)N)c1ccc(C(=O)Oc2ccc([N+](=O)[O-])cc2)cc1
- T/C [21]: 104 % of control
- T/C [19]: 101 % of control
- T/C [20]: 103 % of control

Compound: CC1(C)N=C(N)N=C(N)N1c1ccc(OCCNS(=O)(=O)c2cccc(S(=O)(=O)F)c2)c(Cl)c1
- T/C [3]: 107 % of control
- T/C [10]: 113 % of control
- T/C [7]: 120 % of control

Compound: Nc1cc(Cl)cc(Cl)c1C(=O)O
- T/C (dose: 50.0 mg/kg/injection, schedule: Q04DX003 (ip), vehicle: other): 102 % of control
- T/C (dose: 100.0 mg/kg/injection, schedule: Q04DX003 (ip), vehicle: other): 100 % of control
- T/C (dose: 200.0 mg/kg/injection, schedule: Q04DX003 (ip), vehicle: other): 102 % of control

Compound: CC(C)C(NC(=O)CN(C)C(=O)OCc1ccccc1)C(=O)O (stereo unspecified) (Cbz-[Sar]-[ξV]-OH)
- T/C [15]: 96 % of control
- T/C [17]: 104 % of control
- T/C [18]: 93 % of control
- T/C [22]: 97 % of control and 101 % of control

Compound: CCOC(=O)C(C(=O)COC)C(=O)OCC
- T/C (dose: 25.0 mg/kg/injection, schedule: Q01DX009 (ip), vehicle: water): 102 % of control
- T/C (dose: 50.0 mg/kg/injection, schedule: Q01DX009 (ip), vehicle: water): 98 % of control
- T/C (dose: 100.0 mg/kg/injection, schedule: Q01DX009 (ip), vehicle: water): 93 % of control

Compound: CC(C)C[CH2][Pb]([Cl])([CH2]CC(C)C)[CH2]CC(C)C
- T/C (dose: 0.06 mg/kg/injection, schedule: Q01DX009 (ip), vehicle: saline): 95 % of control
- T/C (dose: 0.12 mg/kg/injection, schedule: Q01DX009 (ip), vehicle: Klucel (hydroxypropylcellulose) (HPC)): 100 % of control
- T/C (dose: 0.12 mg/kg/injection, schedule: Q01DX009 (ip), vehicle: saline): 104 % of control
- T/C [11]: 96 % of control
- T/C (dose: 0.5 mg/kg/injection, schedule: Q01DX009 (ip), vehicle: Klucel (hydroxypropylcellulose) (HPC)): 93 % of control
- T/C [12]: 100 % of control
- T/C (dose: 1.0 mg/kg/injection, schedule: Q01DX009 (ip), vehicle: Klucel (hydroxypropylcellulose) (HPC)): 89 % of control
- T/C [13]: 104 % of control
- T/C (dose: 2.0 mg/kg/injection, schedule: Q01DX009 (ip), vehicle: saline): 101 % of control
- T/C [14]: 98 % of control
- T/C [16]: 94 % of control

Compound: CCc1ccccc1NC(=O)Nc1ccc(OC)cc1
- T/C [23]: 95 % of control
- T/C [21]: 87 % of control

Compound: CCC(C)(C[NH-])C[NH-].[Cl][Pt+2][Cl]
- T/C (dose: 0.5 mg/kg/injection, schedule: Q01DX009 (ip), vehicle: carboxymethylcellulose (CMC)): 159 % of control
- T/C (dose: 1.0 mg/kg/injection, schedule: Q01DX009 (ip), vehicle: carboxymethylcellulose (CMC)): 180 % of control

Compound: COc1cccc(NC(=O)Nc2ccccc2Cl)c1
- T/C (dose: 100.0 mg/kg/injection, schedule: Q01DX009 (ip), vehicle: gum acacia): 96 % of control
- T/C (dose: 200.0 mg/kg/injection, schedule: Q01DX009 (ip), vehicle: gum acacia): 96 % of control
- T/C (dose: 400.0 mg/kg/injection, schedule: Q01DX009 (ip), vehicle: gum acacia): 88 % of control

Compound: CC(NC(C)c1ccccc1)c1ccccc1 (stereo unspecified)
- T/C [23]: 93 % of control
- T/C [21]: 106 % of control
- T/C [19]: 96 % of control

Compound: CN(C)C(C#N)C(=O)c1ccccc1 (stereo unspecified)
- T/C [23]: 104 % of control
- T/C [21]: 97 % of control
- T/C [19]: 97 % of control

Compound: Nc1c(Cl)cc(C(=O)NC2CC2)cc1Cl
- T/C [15]: 92 % of control
- T/C [17]: 102 % of control
- T/C [18]: 113 % of control
- T/C [22]: 97 % of control

Compound: O=C(/C=C(\C(=O)c1ccccc1)c1ccccc1)c1ccccc1
- T/C [4]: 100 % of control
- T/C [5]: 100 % of control
- T/C [6]: 103 % of control

Compound: Cc1ccc(N(CCCl)CCCl)cc1NC(=O)c1ccccc1
- T/C (dose: 400.0 mg/kg/injection, schedule: Q01DX009 (ip), vehicle: saline): 161 % of control
- T/C (dose: 800.0 mg/kg/injection, schedule: Q01DX009 (ip), vehicle: saline): 188 % of control
